Laboratory results published in ChEMBL document CHEMBL5537185, “Discovery of the First-in-Class RORγ Covalent Inhibitors for Treatment of Castration-Resistant Prostate Cancer” (J Med Chem, 2024).
Blank lines part the entries; values can stand above or below the compound they belong to. The source made the active and inactive calls. The calls are words filed in the database; no cut-off is given here.

Experiments:
[1] = Cmax in ICR mouse at 3 mg/kg, iv measured upto 24 hrs by LC-MS/MS analysis; type: ADME, organism-based; conditions: in vivo
[2] = AUClast in ICR mouse at 10 mg/kg, po measured upto 24 hrs by LC-MS/MS analysis; type: ADME, organism-based; conditions: in vivo
[3] = tested on: LNCaP C4-2B; assay: Antiproliferative activity against human LNCaP C4-2B cells incubated for 4 days by CCK8 assay; conditions: 96 h
[4] = Half life in ICR mouse at 10 mg/kg, po measured upto 24 hrs by LC-MS/MS analysis; type: ADME, organism-based; conditions: in vivo
[5] = tested on: LNCaP; assay: Antiproliferative activity against human LNCaP cells incubated for 4 days by CCK8 assay; conditions: 96 h
[6] = tested on: LNCaP C4-2B; assay: Downregulation of AR expression in human LNCaP C4-2B cells at 1.25 to 5 uM incubated for 48 hrs by qRT-PCR analysis; type: functional, cell-based; conditions: dose 1.25-5 µM
[7] = tested on: CWR22R; assay: Downregulation of AR-V7 expression in human 22Rv1 cells at 1.25 to 5 uM by Western blot analysis; type: functional, cell-based; conditions: dose 1.25-5 µM, time 24-72 hrs, TDE = time-dependent effect
[8] = Cmax in ICR mouse at 10 mg/kg, po measured upto 24 hrs by LC-MS/MS analysis; type: ADME, organism-based; conditions: in vivo
[9] = Clearance in ICR mouse at 3 mg/kg, iv measured upto 24 hrs by LC-MS/MS analysis; type: ADME, organism-based; conditions: in vivo
[10] = tested on: CWR22R; assay: Induction of apoptosis in human 22Rv1 cells assessed as increase in caspase-7 activity at 1.25 to 5 uM by Western blot analysis; type: functional, cell-based; conditions: dose 1.25-5 µM
[11] = Volume of distribution at steady state in ICR mouse at 3 mg/kg, iv measured upto 24 hrs by LC-MS/MS analysis; type: ADME, organism-based; conditions: in vivo, read-out: Vdss
[12] = tested on: CWR22R; assay: Downregulation of AR-V7 expression in human 22Rv1 cells incubated for 48 hrs by qRT-PCR analysis; type: functional, cell-based; conditions: dose 1.25-5 µM
[13] = tested on: LNCaP C4-2B; assay: Induction of apoptosis in human LNCaP C4-2B cells assessed as increase in caspase-7 activity at 1.25 to 5 uM by Western blot analysis; type: functional, cell-based; conditions: dose 1.25-5 µM
[14] = Metabolic stability in mouse liver microsomes assessed as half life at 0.1 uM preincubated for 10 mins followed by NADPH addition and measured upto 60 mins by LC-MS/MS analysis; type: ADME, Microsome; conditions: time < 70 min
[15] = Oral bioavailability in ICR mouse at 10 mg/kg measured upto 24 hrs by LC-MS/MS analysis; type: ADME, organism-based; conditions: in vivo
[16] = Toxicity in NOD/SCID mouse assessed as change in body weight at 5 to 10 mg/kg, ip administered five times a week for 2 weeks and measured two times per week; type: organism-based; conditions: in vivo, 336 h, dose 5-10 mg/kg
[17] = tested on: CWR22R; assay: Antitumor activity against human 22Rv1 cells xenografted in ip dosed NOD/SCID mouse assessed as tumor growth inhibition administered five times a week for 2 weeks and measured two times per week; type: functional, organism-based; conditions: dose 5-10 mg/kg
[18] = tested on: CWR22R; assay: Downregulation of KLK2 mRNA expression in human 22Rv1 cells at 1.25 to 5 uM incubated for 48 hrs by qRT-PCR analysis; type: functional, cell-based; conditions: dose 1.25-5 µM
[19] = tested on: LNCaP C4-2B; assay: Downregulation of AR-V7 expression in human LNCaP C4-2B cells incubated for 48 hrs by qRT-PCR analysis; type: functional, cell-based; conditions: dose 1.25-5 µM
[20] = Toxicity in NOD/SCID mouse assessed as tolerability at 5 to 10 mg/kg, ip administered five times a week for 2 weeks and measured two times per week; type: organism-based; conditions: in vivo, 336 h, dose 5-10 mg/kg
[21] = Half life in ICR mouse at 3 mg/kg, iv measured upto 24 hrs by LC-MS/MS analysis; type: ADME, organism-based; conditions: in vivo
[22] = tested on: CWR22R; assay: Inhibition of colony formation in human 22Rv1 cells compound addition at every 3 days and measured after 14 days by crystal violet staining based assay; type: functional, cell-based; conditions: dose 1.25-5 µM, time 14.0 day
[23] = tested on: CWR22R; assay: Antiproliferative activity against human 22Rv1 cells incubated for 4 days by CCK8 assay; conditions: 22Rv1, 96 h
[24] = tested on: CWR22R; assay: Downregulation of KLK3 mRNA expression in human 22Rv1 cells at 1.25 to 5 uM incubated for 48 hrs by qRT-PCR analysis; type: functional, cell-based; conditions: dose 1.25-5 µM
[25] = molecular target: T1, Nuclear receptor ROR-gamma (Homo sapiens, UniProt P51449); assay: Inhibition of Gal4-fused RORgamma LBD (unknown origin) expressed in HEK293T cells incubated for 48 hrs by luciferase based assay; type: cell-based
T1 sequence (P51449 whole entry): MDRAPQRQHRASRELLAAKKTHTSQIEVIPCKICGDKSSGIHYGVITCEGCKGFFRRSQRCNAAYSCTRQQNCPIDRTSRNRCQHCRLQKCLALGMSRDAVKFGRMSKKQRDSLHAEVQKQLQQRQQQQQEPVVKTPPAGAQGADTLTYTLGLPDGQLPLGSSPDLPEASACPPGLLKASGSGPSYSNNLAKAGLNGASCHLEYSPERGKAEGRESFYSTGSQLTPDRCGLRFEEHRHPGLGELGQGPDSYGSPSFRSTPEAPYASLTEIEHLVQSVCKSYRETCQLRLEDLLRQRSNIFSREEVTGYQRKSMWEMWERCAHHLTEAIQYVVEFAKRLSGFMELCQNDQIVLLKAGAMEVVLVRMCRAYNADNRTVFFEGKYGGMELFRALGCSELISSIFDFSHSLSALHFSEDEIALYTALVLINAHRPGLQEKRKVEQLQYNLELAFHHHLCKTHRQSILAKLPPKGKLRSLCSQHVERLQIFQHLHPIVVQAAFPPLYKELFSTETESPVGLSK

[26] = tested on: CWR22R; assay: Downregulation of AR expression in human 22Rv1 cells incubated for 24 to 72 hrs by Western blot analysis; type: functional, cell-based; conditions: dose 1.25-5 µM, time 24-72 hrs
[27] = molecular target: T2, Nuclear receptor ROR-gamma (Homo sapiens) (UniProt P51449); assay: Covalent binding affinity to RORgamma (unknown origin) expressed in Escherichia coli assessed as covalent adduct formation incubated for 4 hrs by mass spectrometric analysis
T2 sequence (whole entry): T1 sequence (P51449 whole entry)

[28] = tested on: LNCaP C4-2B; assay: Downregulation of AR-V7 expression in human LNCaP C4-2B cells incubated for 24 to 72 hrs by Western blot analysis; type: functional, cell-based; conditions: dose 1.25-5 µM, time 24-72 hrs
[29] = tested on: LNCaP C4-2B; assay: Downregulation of AR expression in human LNCaP C4-2B cells incubated for 24 to 72 hrs by Western blot analysis; type: functional, cell-based; conditions: dose 1.25-5 µM, time 24-72 hrs
[30] = tested on: CWR22R; assay: Antitumor activity against human 22Rv1 cells xenografted in NOD/SCID mouse assessed as tumor growth inhibition at 10 mg/kg, ip administered five times a week for 2 weeks and measured two times per week; type: functional; conditions: 22Rv1, 336 h, read-out: TGI
[31] = tested on: CWR22R; assay: Downregulation of AR expression in human 22Rv1 cells at 1.25 to 5 uM by Western blot analysis; type: functional, cell-based; conditions: dose 1.25-5 µM, time 24-72 hrs, TDE = time-dependent effect
[32] = tested on: LNCaP C4-2B; assay: Induction of apoptosis in human LNCaP C4-2B cells assessed as increase in caspase-3 activity at 1.25 to 5 uM by Western blot analysis; type: functional, cell-based; conditions: dose 1.25-5 µM
[33] = tested on: LNCaP C4-2B; assay: Downregulation of KLK3 mRNA expression in human LNCaP C4-2B cells at 1.25 to 5 uM incubated for 48 hrs by qRT-PCR analysis; type: functional, cell-based; conditions: dose 1.25-5 µM
[34] = tested on: CWR22R; assay: Downregulation of NKX3-1 mRNA expression in human 22Rv1 cells at 1.25 to 5 uM incubated for 48 hrs by qRT-PCR analysis; type: functional, cell-based; conditions: dose 1.25-5 µM
[35] = tested on: CWR22R; assay: Downregulation of AR expression in human 22Rv1 cells incubated for 48 hrs by qRT-PCR analysis; type: functional, cell-based; conditions: dose 1.25-5 µM
[36] = AUCinfinity in ICR mouse at 10 mg/kg, po measured upto 24 hrs by LC-MS/MS analysis; type: ADME, organism-based; conditions: in vivo
[37] = tested on: LNCaP C4-2B; assay: Downregulation of KLK2 mRNA expression in human LNCaP C4-2B cells at 1.25 to 5 uM incubated for 48 hrs by qRT-PCR analysis; type: functional, cell-based; conditions: dose 1.25-5 µM
[38] = tested on: LNCaP C4-2B; assay: Downregulation of AR expression in human LNCaP C4-2B cells at 1.25 to 5 uM by Western blot analysis; type: functional, cell-based; conditions: dose 1.25-5 µM, time 24-72 hrs, TDE = time-dependent effect
[39] = tested on: CWR22R; assay: Induction of apoptosis in human 22Rv1 cells assessed as increase in caspase-3 activity at 1.25 to 5 uM by Western blot analysis; type: functional, cell-based; conditions: dose 1.25-5 µM
[40] = AUCinfinity in ICR mouse at 3 mg/kg, iv measured upto 24 hrs by LC-MS/MS analysis; type: ADME, organism-based; conditions: in vivo
[41] = tested on: LNCaP C4-2B; assay: Inhibition of colony formation in human LNCaP C4-2B cells compound addition at every 3 days and measured after 14 days by crystal violet staining based assay; type: functional, cell-based; conditions: dose 1.25-5 µM, time 14.0 day
[42] = tested on: LNCaP C4-2B; assay: Downregulation of AR-V7 expression in human LNCaP C4-2B cells at 1.25 to 5 uM by Western blot analysis; type: functional, cell-based; conditions: dose 1.25-5 µM, TDE = time-dependent effect
[43] = tested on: CWR22R; assay: Antitumor activity against human 22Rv1 cells xenografted in NOD/SCID mouse assessed as tumor growth inhibition at 5 mg/kg, ip administered five times a week for 2 weeks and measured two times per week; type: functional; conditions: 22Rv1, 336 h, read-out: TGI
[44] = tested on: CWR22R; assay: Downregulation of AR-V7 expression in human 22Rv1 cells incubated for 24 to 72 hrs by Western blot analysis; type: functional, cell-based; conditions: dose 1.25-5 µM, time 24-72 hrs
[45] = AUClast in ICR mouse at 3 mg/kg, iv measured upto 24 hrs by LC-MS/MS analysis; type: ADME, organism-based; conditions: in vivo
[46] = tested on: LNCaP C4-2B; assay: Downregulation of NKX3-1 mRNA expression in human LNCaP C4-2B cells at 1.25 to 5 uM incubated for 48 hrs by qRT-PCR analysis; type: functional, cell-based; conditions: dose 1.25-5 µM

- Cmax [1]: 2000 ng/mL
- AUC(0-t) at 24 h [2]: 248 ng·h/mL
- IC50 [3]: 470 nM
- half-life [4]: 36.6 min
- IC50 [5]: 630 nM
- Cmax [8]: 270 ng/mL
- clearance [9]: 86.8 mL/min/kg
- Vd [11]: 0.75 L/kg
- half-life at 0.1 µM [14]: 21.3 min
- bioavailability [15]: 12.7%
- half-life [21]: 13.2 min
- IC50 [25]: 210 nM
- Activity [27]: Active
- AUC(0-inf) [36]: 251 ng·h/mL
- AUC(0-inf) [40]: 585 ng·h/mL
- AUC(0-t) at 24 h [45]: 584 ng·h/mL
SMILES: C=CC(=O)Nc1ccccc1-c1ccc(NC(=O)Cc2ccc(S(=O)(=O)CC)cc2)cc1Cl
- Activity [6]: Dose-Dependent Effect
- Activity [7]: Tde
- Activity [10]: Active
- Activity [12]: Dose-Dependent Effect
- Activity [13]: Active
- Activity [16]: Non-Toxic
- Activity [17]: Dose-Dependent Effect
- Activity [18]: Active
- Activity [19]: Dose-Dependent Effect
- Activity [20]: Non-Toxic
- inhibition [22]: Dose-Dependent Effect
- IC50 [23]: 770 nM
- Activity [24]: Active
- Activity [26]: Dose-Dependent Effect
- Activity [28]: Dose-Dependent Effect
- Activity [29]: Dose-Dependent Effect
- inhibition in vivo at 10 mg/kg [30]: 62.6%
- Activity [31]: Tde
- Activity [32]: Active
- Activity [33]: Active
- Activity [34]: Active
- Activity [35]: Dose-Dependent Effect
- Activity [37]: Active
- Activity [38]: Tde
- Activity [39]: Active
- inhibition [41]: Dose-Dependent Effect
- Activity [42]: Tde
- inhibition in vivo at 5 mg/kg [43]: 41.9%
- Activity [44]: Dose-Dependent Effect
- Activity [46]: Active

- IC50 [25]: 1630 nM
SMILES: C/C=C/C(=O)Nc1ccccc1-c1ccc(NC(=O)Cc2ccc(S(=O)(=O)CC)cc2)cc1C

- IC50 [3]: 1100 nM
- IC50 [5]: 1770 nM
- IC50 [25]: 2170 nM
SMILES: C=CC(=O)Nc1ccccc1-c1ccc(NC(=O)Cc2ccc(S(=O)(=O)CC)cc2)cc1C(F)(F)F
- IC50 [23]: 2560 nM
